Assay results: patent US20250066371A1, “FLUOROALKOXYALKYLENE-DIHYDROIMIDAZO[5,1-D]TETRAZINONE COMPOUNDS AND RELATED COMPOUNDS AND THEIR USE IN TREATING MEDICAL CONDITIONS” (priority 2023, published 2025)
Read-outs that look alike come from different tables or passages of the source.

Columns and labels:
[1] = tested on: LN229 gliobastoma cells MGMT−/MMR+; assay: Anti-cancer assay, isogenic LN229 cells, nuclei count (Examples 43, 46); type: cell-based; details: Homo sapiens, LN-229; MGMT negative/MMR positive; Example 46, maximum concentration 200 μM; read-out: IC50 for causing the death of LN229 cells
VA-ES-BJ = assay: Cell panel nuclear dye assay; type: cell-based; details: 120 h, Sarcoma (epitheloid), 5-day incubation
Method: (§1) Cells were grown in RPMI1640, 10% FBS, 2 mM L-alanyl-L-glutamine, 1 mM Na pyruvate, or a special medium. Cells were seeded into 384-well plates and incubated in a humidified atmosphere of 5% CO2 at 37° C. Compound was added the day following cell seeding. At the same time, a time zero untreated cell plate was generated. After a 5-day incubation period, cells were fixed and stained to allow fluorescence imaging of nuclei.
(§2) Compounds were serially diluted in 2-fold steps from the highest test concentration specified, and assayed over 10 concentrations with a maximum assay concentration of 0.1% DMSO. Automated fluorescence microscopy was carried out using a Molecular Devices ImageXpress Micro XL high-content imager, and images were collected with a 4× objective. 16-bit TIFF images were acquired and analyzed with MetaXpress 5.1.0.41 software.
(§3) Cell proliferation was measured by the fluorescence intensity of an incorporated nuclear dye. The output is referred to as the relative cell count, where the measured nuclear intensity is transformed to percent of control (POC) using the following formula: […]
(§4) Cell count IC50 is the test compound concentration at 50% of maximal possible response. EC50 is the test compound concentration at the curve inflection point or half the effective response (parameter C of the fitted curve solution). GI50 is the concentration needed to reduce the observed growth by half (midway between the curve maximum and the time zero value). Activity area is an estimate of the integrated area above the curve. Activity area values range from 0-10, where a value of zero indicates no inhibition of proliferation at all concentrations, and a value of 10 indicates complete inhibition of proliferation at all concentrations. In rare instances, values <0 or >10 may be observed. In these instances, values <0 should be considered as equivalent to 0, whereas values >10 should be considered equivalent to 10.

SJRH30 = assay: Cell panel nuclear dye assay; type: cell-based; details: Homo sapiens, 120 h, Sarcoma (rhabdomyosarcoma), 5-day incubation
Method: as §1, §2, §3, §4

DMS53 = assay: Cell panel nuclear dye assay; type: cell-based; details: Homo sapiens, DMS-53, 120 h, Lung (SCLC), 5-day incubation
Method: as §1, §2, §3, §4

SW1783 = assay: Cell panel nuclear dye assay; type: cell-based; details: Homo sapiens, 120 h, Glioma (astrocytoma), 5-day incubation
Method: as §1, §2, §3, §4

A101D = assay: Cell panel nuclear dye assay; type: cell-based; details: Homo sapiens, 120 h, Melanoma, 5-day incubation
Method: as §1, §2, §3, §4

[2] = tested on: LN229 gliobastoma cells MGMT−/MMR−; assay: Anti-cancer assay, isogenic LN229 cells, nuclei count (Examples 43, 46); type: cell-based; details: Homo sapiens, LN-229; LN229 MGMT−/MMR−; 120 hours; read-out: MGMT− MMR− Activity
From the text: (§5) Cytotoxicity of the compounds may be measured in short-term cell viability assays against four isogenic LN229 glioblastoma cell lines engineered to be proficient or deficient in MGMT and/or MMR activity by using short hairpin RNAs (shRNAs) targeting MSH2. This approach allows for determination of the relationship between MGMT status, MMR status, and compound activity. LN229 cells are maintained in Dulbecco's Modified Eagle Medium (DMEM) supplemented with 10% fetal bovine serum, 1% Penicillin/Streptomycin, and 0.1% Fungin. DAY 0: Cells are plated into sterile 96-well plates (Corning Costar 96-well) at a concentration of 500 cells/well using a Multichannel pipettor. Then, assay plates are incubated overnight in a 37° C. 5% CO2 incubator. DAY 1: Compounds are prepared as 50 mM stocks in dimethyl sulfoxide (DMSO) and stored protected from light at room temperature (RT) until use. Prior to compound addition, a two-fold serial dilution of compound stock solutions is performed in DMSO from 30 mM to 0.117 mM in a 96-well Master plate. Vehicle control wells contain DMSO. 97 μL of media is added to each well of a new 96-well plate (Daughter plate) and 3 μL of drug solution from Master plate is added to corresponding wells in the Daughter plate resulting in a 3× plate. Three replicate dilution curves of each compound are run on each assay plate. The final concentration of compounds ranges from 300 μM to 1.171 μM (9-point, 2-fold dilution dose response curve), and the final DMSO concentration is 1%.
(§6) Assay plates are incubated for 120 hours at 37° C. in a humidified 5% CO2 incubator. DAY 5: Following incubation, cells are fixed with 4% paraformaldehyde and stained with Hoechst dye for nuclei visualization. Fixation, staining and washing is performed by using a Thermo Scientific Multidrop Combi. Images are acquired on a BioTek Cytation 5 Cell Imaging Multimode Reader and quantified using Cell Profiler image analysis software. Raw cell count data for test compounds are normalized to percent viability relative to the DMSO vehicle control.
(§7) Isogenic LN229 gliobastoma cells were maintained in Dulbecco's Modified Eagle Medium (DMEM) supplemented with 10% fetal bovine serum, 1% Penicillin/Streptomycin, and 0.1% Fungin. DAY 0: Cells were plated into sterile 96-well plates (Corning Costar 96-well) at a concentration of 500 cells/well using a Multichannel pipettor. Then, assay plates were incubated overnight in a 37° C. 5% CO2 incubator. DAY 1: Compounds were prepared as 50 mM stocks in dimethyl sulfoxide (DMSO) and stored protected from light at room temperature (RT) until use. Prior to compound addition, a two-fold serial dilution of compound stock solutions was performed in DMSO from 30 mM to 0.117 mM in a 96-well Master plate. Vehicle control wells contained DMSO. 97 μL of media was added to each well of a new 96-well plate (Daughter plate) and 3 μL of drug solution from Master plate was added to corresponding wells in the Daughter plate resulting in a 3× plate. Three replicate dilution curves of each compound were run on each assay plate. The final concentration of compounds ranged from 300 μM to 1.171 μM (9-point, 2-fold dilution dose response curve), and the final DMSO concentration was 1%.
as §6, with “plates were” for “plates are”, “cells were” for “cells are”, “washing was” for “washing is”, “Images were” for “Images are”, “compounds were” for “compounds are”, “control. […]” for “control.”

[3] = tested on: LN229 gliobastoma cells MGMT−/MMR+; assay: as above; type: cell-based; details: Homo sapiens, LN-229; LN229 MGMT−/MMR+; 120 hours; read-out: MGMT− MMR+ Activity
From the text: as §5, §6, §7
as §6, with “plates were” for “plates are”, “cells were” for “cells are”, “washing was” for “washing is”, “Images were” for “Images are”, “compounds were” for “compounds are”, “control. […]” for “control.”

rats = assay: Animal model toxicity testing in rats; details: tested doses exceeded those at which A1 caused 100% mortality

For NC(=O)c1ncn2c(=O)n(CCOC(F)(F)F)nnc12 [Compound I-1, 4-Oxo-3-(2-(trifluoromethoxy)ethyl)-3,4-dihydroimidazo[5,1-d][1,2,3,5]tetrazine-8-carboxamide], the IC50 [1] was less than 20 µM, the EC50 (VA-ES-BJ) was 70 to 150 µM and the IC50 (VA-ES-BJ) was greater than 150 µM. The EC50 (SJRH30) was no more than 30 µM, the IC50 (SJRH30) was no more than 30 µM and the EC50 (DMS53) was no more than 30 µM. The IC50 (DMS53) was no more than 30 µM, the EC50 (SW1783) was 70 to 150 µM and the IC50 (SW1783) was 70 to 150 µM. For the same compound, the EC50 (A101D) was no more than 30 µM, the IC50 (A101D) was no more than 30 µM and the IC50 [2] was less than 20 µM. The IC50 [3] was less than 20 µM and the adverse clinical signs (rats) was “no adverse clinical signs were observed”.
